According to ChEMBL document CHEMBL3779774, “Efficient synthesis of novel disubstituted pyrido[3,4-b]pyrazines for the design of protein kinase inhibitors” (Medchemcomm, 2016):

Assays:
[1] = target: Vascular endothelial growth factor receptor 2 (Homo sapiens, UniProt P35968); experiment: Inhibition of N-terminal His6-tagged human recombinant KDR (790 to end residues) expressed in baculovirus infected insect Sf21 cells after 1 hr by Alphascreen assay
[2] = target: High affinity nerve growth factor receptor (Homo sapiens, UniProt P04629); experiment: Inhibition of N-terminal His6-tagged human recombinant TrkA (440 to end residues) expressed in baculovirus infected insect Sf21 cells after 1 hr by Alphascreen assay
Sequence of High affinity nerve growth factor receptor (P04629 whole entry): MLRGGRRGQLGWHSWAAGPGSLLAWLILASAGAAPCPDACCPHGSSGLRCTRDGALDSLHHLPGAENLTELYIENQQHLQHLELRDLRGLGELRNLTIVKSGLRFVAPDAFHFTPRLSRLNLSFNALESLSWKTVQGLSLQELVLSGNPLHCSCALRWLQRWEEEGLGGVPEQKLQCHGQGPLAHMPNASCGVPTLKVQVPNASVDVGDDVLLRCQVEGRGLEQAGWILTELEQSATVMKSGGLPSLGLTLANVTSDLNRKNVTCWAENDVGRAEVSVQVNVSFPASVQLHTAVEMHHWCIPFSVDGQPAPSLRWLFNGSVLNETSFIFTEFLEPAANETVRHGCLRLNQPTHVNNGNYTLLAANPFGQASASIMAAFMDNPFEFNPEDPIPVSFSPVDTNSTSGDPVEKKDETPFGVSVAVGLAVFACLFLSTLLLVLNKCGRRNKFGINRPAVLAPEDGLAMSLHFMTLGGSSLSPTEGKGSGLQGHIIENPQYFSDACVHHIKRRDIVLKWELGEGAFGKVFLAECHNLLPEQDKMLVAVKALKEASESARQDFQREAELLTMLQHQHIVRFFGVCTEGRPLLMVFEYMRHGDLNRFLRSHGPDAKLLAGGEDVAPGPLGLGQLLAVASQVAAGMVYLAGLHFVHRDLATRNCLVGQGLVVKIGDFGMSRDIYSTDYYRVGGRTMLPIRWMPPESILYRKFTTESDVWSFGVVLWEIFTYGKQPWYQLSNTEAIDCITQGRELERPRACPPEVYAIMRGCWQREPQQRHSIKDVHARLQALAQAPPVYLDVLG

[3] = target: Tyrosine-protein kinase ABL1 (Homo sapiens, UniProt P00519); experiment: Inhibition of recombinant c-Abl (unknown origin) after 1 hr by Alphascreen assay
Sequence of Tyrosine-protein kinase ABL1 (P00519 whole entry): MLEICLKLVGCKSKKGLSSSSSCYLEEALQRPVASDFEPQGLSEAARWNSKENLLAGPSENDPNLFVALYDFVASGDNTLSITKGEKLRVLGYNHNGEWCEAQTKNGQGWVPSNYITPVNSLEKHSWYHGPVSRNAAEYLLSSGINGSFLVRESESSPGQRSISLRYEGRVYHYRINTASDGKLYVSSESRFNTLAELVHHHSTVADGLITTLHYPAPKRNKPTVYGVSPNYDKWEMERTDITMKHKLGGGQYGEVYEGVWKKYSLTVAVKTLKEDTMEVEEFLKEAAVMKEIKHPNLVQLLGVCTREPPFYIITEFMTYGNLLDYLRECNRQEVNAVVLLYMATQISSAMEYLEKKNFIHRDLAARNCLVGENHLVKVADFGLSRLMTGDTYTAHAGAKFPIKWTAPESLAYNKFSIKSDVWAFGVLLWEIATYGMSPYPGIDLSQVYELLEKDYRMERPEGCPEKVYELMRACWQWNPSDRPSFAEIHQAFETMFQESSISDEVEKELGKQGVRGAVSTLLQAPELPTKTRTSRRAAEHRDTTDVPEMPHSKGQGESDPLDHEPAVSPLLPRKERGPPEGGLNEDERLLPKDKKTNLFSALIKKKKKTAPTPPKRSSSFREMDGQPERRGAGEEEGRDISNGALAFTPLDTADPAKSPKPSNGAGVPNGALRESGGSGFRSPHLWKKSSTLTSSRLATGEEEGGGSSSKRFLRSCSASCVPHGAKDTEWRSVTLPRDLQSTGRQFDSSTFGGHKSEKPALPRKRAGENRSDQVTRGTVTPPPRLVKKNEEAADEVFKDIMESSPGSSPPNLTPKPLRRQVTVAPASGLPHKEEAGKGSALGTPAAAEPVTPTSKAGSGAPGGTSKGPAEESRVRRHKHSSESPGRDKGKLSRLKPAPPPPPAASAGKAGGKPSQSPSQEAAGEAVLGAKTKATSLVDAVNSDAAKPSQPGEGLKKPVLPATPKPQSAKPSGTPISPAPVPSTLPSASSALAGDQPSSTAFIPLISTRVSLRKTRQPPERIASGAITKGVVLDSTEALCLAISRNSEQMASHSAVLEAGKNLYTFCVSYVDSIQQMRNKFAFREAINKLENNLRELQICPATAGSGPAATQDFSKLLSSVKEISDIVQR

[4] = target: Mitogen-activated protein kinase 1 (Homo sapiens, UniProt P28482); experiment: Inhibition of recombinant ERK2 (unknown origin) after 1 hr by Alphascreen assay
Sequence of Mitogen-activated protein kinase 1 (P28482 whole entry, the tested form may be a part): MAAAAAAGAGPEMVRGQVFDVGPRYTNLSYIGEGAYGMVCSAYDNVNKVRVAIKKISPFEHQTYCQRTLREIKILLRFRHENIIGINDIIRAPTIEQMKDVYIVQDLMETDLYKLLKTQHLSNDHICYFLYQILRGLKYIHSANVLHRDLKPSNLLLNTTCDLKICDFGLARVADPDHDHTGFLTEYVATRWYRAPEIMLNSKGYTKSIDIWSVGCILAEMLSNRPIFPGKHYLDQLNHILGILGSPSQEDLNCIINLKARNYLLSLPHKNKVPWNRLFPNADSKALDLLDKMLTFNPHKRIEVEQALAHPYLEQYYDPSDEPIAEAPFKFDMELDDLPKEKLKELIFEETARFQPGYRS

[5] = target: Homeodomain-interacting protein kinase 1 (Homo sapiens, UniProt Q86Z02); experiment: Inhibition of N-terminal His6-tagged recombinant human HIPK1 (158 to 555 residues) after 1 hr by Alphascreen assay
Sequence of Homeodomain-interacting protein kinase 1 (Q86Z02 whole entry, the tested form may be a part): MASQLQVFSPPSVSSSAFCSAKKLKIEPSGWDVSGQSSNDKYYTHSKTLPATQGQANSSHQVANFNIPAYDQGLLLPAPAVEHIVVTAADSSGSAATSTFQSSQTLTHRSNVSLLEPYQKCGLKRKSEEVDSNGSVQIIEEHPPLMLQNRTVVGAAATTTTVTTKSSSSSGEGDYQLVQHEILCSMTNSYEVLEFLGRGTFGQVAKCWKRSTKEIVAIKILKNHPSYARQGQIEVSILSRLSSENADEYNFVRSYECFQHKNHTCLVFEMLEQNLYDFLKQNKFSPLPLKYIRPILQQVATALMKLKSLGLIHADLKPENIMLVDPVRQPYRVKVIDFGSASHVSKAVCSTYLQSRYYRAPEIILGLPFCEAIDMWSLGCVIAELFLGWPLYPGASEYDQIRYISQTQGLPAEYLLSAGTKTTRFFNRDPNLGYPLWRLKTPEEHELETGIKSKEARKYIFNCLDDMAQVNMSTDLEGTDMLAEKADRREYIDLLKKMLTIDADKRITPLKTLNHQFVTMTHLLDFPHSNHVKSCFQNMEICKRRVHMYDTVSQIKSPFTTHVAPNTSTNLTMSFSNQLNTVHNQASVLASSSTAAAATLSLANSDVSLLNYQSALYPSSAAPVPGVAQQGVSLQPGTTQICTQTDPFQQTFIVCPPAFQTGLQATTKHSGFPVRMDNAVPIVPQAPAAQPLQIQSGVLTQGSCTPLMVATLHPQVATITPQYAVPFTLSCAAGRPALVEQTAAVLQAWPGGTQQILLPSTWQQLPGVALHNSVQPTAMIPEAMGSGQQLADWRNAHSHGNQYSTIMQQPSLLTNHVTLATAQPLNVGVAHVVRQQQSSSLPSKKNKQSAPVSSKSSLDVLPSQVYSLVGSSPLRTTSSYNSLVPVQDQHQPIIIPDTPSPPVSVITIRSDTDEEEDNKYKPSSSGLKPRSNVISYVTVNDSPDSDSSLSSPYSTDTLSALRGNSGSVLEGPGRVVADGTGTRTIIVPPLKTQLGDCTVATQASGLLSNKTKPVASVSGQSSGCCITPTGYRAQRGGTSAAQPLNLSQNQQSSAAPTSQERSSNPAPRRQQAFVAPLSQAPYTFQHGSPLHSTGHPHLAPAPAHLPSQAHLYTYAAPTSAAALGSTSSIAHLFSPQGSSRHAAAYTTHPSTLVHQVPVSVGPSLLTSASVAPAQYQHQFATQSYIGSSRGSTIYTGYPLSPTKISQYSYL

[6] = target: Tyrosine-protein kinase Yes (Homo sapiens, UniProt P07947); experiment: Inhibition of N-terminal His6-tagged human recombinant Yes expressed in baculovirus infected insect Sf21 cells after 1 hr by Alphascreen assay
Sequence of Tyrosine-protein kinase Yes (P07947 whole entry): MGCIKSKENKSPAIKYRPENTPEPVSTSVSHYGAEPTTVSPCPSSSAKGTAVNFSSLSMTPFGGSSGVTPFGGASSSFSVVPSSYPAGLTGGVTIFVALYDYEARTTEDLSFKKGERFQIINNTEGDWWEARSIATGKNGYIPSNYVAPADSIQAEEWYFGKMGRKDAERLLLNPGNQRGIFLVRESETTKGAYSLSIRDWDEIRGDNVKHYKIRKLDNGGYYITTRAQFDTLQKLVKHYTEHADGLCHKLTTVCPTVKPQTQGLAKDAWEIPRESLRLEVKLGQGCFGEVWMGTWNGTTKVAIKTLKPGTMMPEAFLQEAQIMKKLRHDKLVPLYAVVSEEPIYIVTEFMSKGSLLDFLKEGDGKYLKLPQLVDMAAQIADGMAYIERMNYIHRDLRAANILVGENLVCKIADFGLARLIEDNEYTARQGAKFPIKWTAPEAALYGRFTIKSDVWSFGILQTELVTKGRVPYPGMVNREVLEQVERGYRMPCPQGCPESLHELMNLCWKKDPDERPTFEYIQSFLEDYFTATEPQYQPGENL

[7] = target: Serine/threonine-protein kinase pim-1 (Homo sapiens, UniProt P11309); experiment: Inhibition of N-terminal GST-tagged recombinant human full length Pim-1 expressed in Escherichia coli after 1 hr by Alphascreen assay
Sequence of Serine/threonine-protein kinase pim-1 (P11309 whole entry): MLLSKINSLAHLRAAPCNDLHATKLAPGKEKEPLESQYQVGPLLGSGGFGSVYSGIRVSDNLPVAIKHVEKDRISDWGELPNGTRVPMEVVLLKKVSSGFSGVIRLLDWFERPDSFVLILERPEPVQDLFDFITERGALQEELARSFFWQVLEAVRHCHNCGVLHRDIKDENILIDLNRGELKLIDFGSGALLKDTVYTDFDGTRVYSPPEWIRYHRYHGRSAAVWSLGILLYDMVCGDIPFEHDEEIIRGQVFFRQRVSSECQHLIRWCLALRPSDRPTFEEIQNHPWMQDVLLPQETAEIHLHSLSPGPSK

Row | Structure (SMILES) | IC50 [1] [µM] | IC50 [2] [µM] | IC50 [3] [µM] | IC50 [4] [µM] | IC50 [5] [µM] | IC50 [6] [µM] | IC50 [7] [µM]
1 | COc1ccc(-c2cnc3c(Nc4ccc(N5CCOCC5)cc4)nccc3n2)cc1 | 12 | 6.69 | 5.37 | > 100 | > 100 | 7.07 | > 100
2 | COc1cccc(Nc2cc3nc(-c4ccccc4)cnc3cn2)c1 | > 100 | > 100 | > 100 | > 100 | > 100 | > 31.6 | > 100
3 | C=CCNC(=O)Nc1cncc2nc(-c3ccccc3)cnc12 | > 31.6 | > 100 | > 100 | > 31.6 | > 100 | > 100 | > 100
4 | c1ccc(-c2cnc3cnc(Nc4ccc(N5CCCCC5)cc4)cc3n2)cc1 | 17.1 | 9.24 | 8.71 | 23.2 | 30.5 | 23.1 | 27.4
5 | C#Cc1cccc(Nc2nccc3nc(-c4ccccc4)cnc23)c1 | > 100 | > 100 | > 100 | > 100 | > 100 | > 100 | > 100
6 | c1ccc(-c2cnc3c(Nc4ccc(N5CCCCC5)cc4)cncc3n2)cc1 | 2.06 | 3.42 | 2.54 | 2.34 | 2.73 | 6.21 | 2.81
7 | c1ccc(-c2cnc3cncc(Nc4ccc(N5CCCCC5)cc4)c3n2)cc1 | 1.56 | 3.23 | 2.16 | 2.02 | 2.59 | 5.56 | 2.61
8 | COc1ccc(-c2cnc3cncc(Nc4ccc(N5CCCCC5)cc4)c3n2)cc1 | 2.05 | 3.72 | 2.27 | 3.13 | 3.21 | 5.34 | 2.83
9 | c1ccc(-c2cnc3c(Nc4ccc(N5CCOCC5)cc4)nccc3n2)cc1 | 16 | 13.7 | 11.5 | > 100 | > 100 | 12.6 | > 100
10 | COc1cccc(Nc2cncc3nc(-c4ccc(N5CCCCC5)cc4)cnc23)c1 | > 100 | > 100 | 7.91 | > 100 | > 100 | > 31.6 | > 100
11 | COc1ccc(NC(=O)Nc2cncc3nc(-c4ccccc4)cnc23)cc1 | > 100 | > 100 | 25.1 | 5.25 | 20.4 | 22.1 | 16.4
12 | COc1ccccc1Nc1nccc2nc(-c3ccccc3)cnc12 | > 31.6 | > 100 | 16.6 | > 100 | > 100 | 20.4 | > 100
13 | COc1ccc(-c2cnc3cncc(Nc4cc(OC)ccc4OC)c3n2)cc1 | 1.6 | 1.45 | 1.37 | 3.79 | 13.1 | 2.01 | 8.57

Further lines, results first:

Row | IC50 [1] [µM] | IC50 [2] [µM] | IC50 [3] [µM] | IC50 [4] [µM] | IC50 [5] [µM] | IC50 [6] [µM] | IC50 [7] [µM] | Structure (SMILES)
14 | > 100 | > 100 | > 100 | > 100 | > 100 | > 100 | > 100 | COc1cccc(Nc2nccc3nc(-c4ccccc4)cnc23)c1
15 | > 100 | > 100 | > 100 | > 100 | > 100 | 31.5 | > 100 | COc1ccc(Nc2nccc3nc(-c4ccccc4)cnc23)cc1
16 | 6.12 | 5.32 | 5.27 | 8.43 | 8.15 | 5.11 | 8.3 | c1ccc(-c2cnc3cncc(Nc4ccc(N5CCOCC5)cc4)c3n2)cc1
17 | > 100 | > 100 | 22.5 | > 100 | > 100 | > 31.6 | > 100 | c1ccc(Nc2cncc3nc(-c4ccc(N5CCCCC5)cc4)cnc23)cc1
18 | > 100 | > 100 | 30.8 | > 100 | > 100 | > 100 | > 100 | CCNC(=O)Nc1nccc2nc(-c3ccccc3)cnc12
19 | 11.1 | 7.79 | 6.84 | 12.2 | 11.8 | 8.82 | 31.2 | c1ccc(Nc2cncc3ncc(-c4ccc(N5CCCCC5)cc4)nc23)cc1
20 | 1.1 | 5.81 | 2.66 | 1.42 | 0.922 | 8.1 | 4.91 | c1ccc(-c2cnc3c(Nc4ccc(N5CCCCC5)cc4)nccc3n2)cc1
21 | 8.84 | 9.36 | 7.71 | 16.6 | 12.7 | 11.1 | 11.3 | COc1cccc(Nc2cncc3ncc(-c4ccc(N5CCCCC5)cc4)nc23)c1
22 | > 100 | > 100 | > 100 | > 31.6 | > 100 | > 31.6 | > 31.6 | COc1cccc(NC(=O)Nc2cncc3nc(-c4ccccc4)cnc23)c1
23 | > 100 | > 100 | 12.9 | > 100 | > 100 | 27.2 | > 100 | c1ccc(-c2cnc3cc(Nc4ccc(N5CCCCC5)cc4)ncc3n2)cc1
24 | > 100 | > 100 | > 100 | > 100 | > 100 | > 31.6 | > 100 | COc1cccc(NC(=O)Nc2nccc3nc(-c4ccccc4)cnc23)c1
25 | 1.99 | 1.44 | 1.34 | 1.44 | 7.25 | 1.02 | 11.8 | COc1ccc(-c2cnc3c(Nc4ccc(N5CCCCC5)cc4)nccc3n2)cc1
26 | > 100 | > 100 | > 100 | > 100 | > 100 | > 31.6 | > 100 | Fc1ccc(Nc2cncc3nc(-c4ccccc4)cnc23)cc1Cl
27 | 3.31 | 2.48 | 2.49 | 4.26 | 4.02 | 2.41 | 4.4 | COc1ccc(-c2cnc3cncc(Nc4ccc(N5CCOCC5)cc4)c3n2)cc1
28 | > 100 | > 100 | > 100 | > 100 | > 100 | > 100 | > 100 | c1ccc(-c2cnc3cnc(Nc4ccc(N5CCOCC5)cc4)cc3n2)cc1
